Data: patent US9005579B2 (priority 2010, dated 2015)

How the values were obtained:
[1] = test system: Staphylococci (protein A negative S. aureus strain 8325-4); experiment: Ampicillin and penicillin MIC (serial 2-fold dilutions, microtiter plate); type: cell-based, Staphylococcus aureus; conditions: for highest dilution of antibiotic showing normal growth (sub-MIC used in experiments): 12 h, BHI media; for growth of staphylococci in the presence of sub-MIC of antibiotic: no antibody
Experimental: The MIC dose of two cell wall affecting antibiotics, ampicillin and penicillin, was determined for the protein A negative S. aureus strain 8325-4.
Serial 2-fold dilutions of penicillin and ampicillin were prepared in a microtiter plate. Overnight culture of Staphylococci were diluted 1:100 in BHI media and 100 ul was added to each well and the plate incubated for 12 h. Wells without antibiotic served as controls. The highest dilution of antibiotic showing normal growth was used for further experiments. Ampicillin at 0.1 ug/ml and Penicillin at 0.02 ug/ml were used in these experiments.

[2] = test system: Protein A negative Staphylococcus aureus derived from strain 8325-4; experiment: Growth of S. aureus with sub-MIC antibiotic with or without mouse anti-sortase monoclonal antibody (OD600, 12 h); type: cell-based; conditions: sub-MIC antibiotic + tissue culture medium, no Ab
Text: In a separate set of experiments, we assessed the effect of anti-sortase antibodies, in the presence and absence of antibiotic, on the growth of the staphylococci. Monoclonal supernatants were used for these experiments and tissue culture media used as controls. […] Exemplary growth curve results with monoclonal antibody 7C2 at 1:10 dilution are depicted in FIG. 5. The growth results are tabulated in TABLE 3 below based on final OD readings of multiple growth experiments. In each instance, significant growth inhibition is observed with a combination of sub-MIC antibiotics and anti-sortase antibody.
Protein A negative Staphylococcus aureus derived from strain 8325-4 was grown to OD600 0.5 in Brain-Heart Infusion medium at 37° C. (Patel A H et al (1987) Infect Immun 55(12):3103-3110). When applicable, antibiotics were added to the media at sub-MIC doses.
Mouse anti-sortase monoclonals were added to each cell-antibiotic culture at a dilution of either 1:10 or 1:100. OD600 values were measured every 5 mins for 12 hours in a 96-well spectrophotometer.

[3] = D-Ala-D-Ala termini replaced with D-Ala-D-Lac in VRE; cited from earlier work
[4] = test system: E. coli O111:B4; conditions: overnight incubation, inhibitory concentrations; cited from earlier work
[5] = biological target: sortase (Staphylococcus aureus, UniProt Q2FV99); conditions: in vitro and in vivo; react with Cys184; cited from earlier work
Chain of sortase (Q2FV99 whole entry): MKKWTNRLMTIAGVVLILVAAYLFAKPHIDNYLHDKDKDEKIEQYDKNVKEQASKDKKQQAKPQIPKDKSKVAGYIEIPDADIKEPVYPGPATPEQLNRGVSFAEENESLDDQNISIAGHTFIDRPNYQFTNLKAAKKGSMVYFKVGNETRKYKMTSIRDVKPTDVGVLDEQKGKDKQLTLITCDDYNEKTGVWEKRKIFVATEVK

Which “highest dilution of antibiotic showing normal growth (sub-MIC used in experiments)” value [1] does the source give for CC1(C)S[C@@H]2[C@H](NC(=O)[C@H](N)c3ccccc3)C(=O)N2[C@H]1C(=O)O [AMP, Ampicillin] here?
The value was 0.1 µg/mL.

And the “growth of staphylococci in the presence of sub-MIC of antibiotic” value [1]?
Its value is “grow similar to control bacteria without antibiotic”.

And the “Average OD” value ([2]; control of Ab 1:10)?
Its value is 0.3308.

What about the “Final OD Reading 1” value ([2]; control of Ab 1:10) of the same molecule?
The value was 0.2975.

And the “Final OD Reading 2” value ([2]; control of Ab 1:10)?
The value was 0.3641.

And the “Average OD” value ([2]; control of Ab 1:100)?
Its value is 0.4421.

And the “Final OD Reading 1” value ([2]; control of Ab 1:100)?
Its value is 0.4216.

And the “Final OD Reading 2” value ([2]; control of Ab 1:100)?
The value was 0.4627.

With CN[C@H](CC(C)C)C(=O)N[C@H]1C(=O)N[C@@H](CC(N)=O)C(=O)N[C@H]2C(=O)N[C@H]3C(=O)N[C@H](C(=O)N[C@H](C(=O)O)c4cc(O)cc(O)c4-c4cc3ccc4O)[C@H](O)c3ccc(c(Cl)c3)Oc3cc2cc(c3O[C@@H]2O[C@H](CO)[C@@H](O)[C@H](O)[C@H]2O[C@H]2C[C@](C)(N)[C@H](O)[C@H](C)O2)Oc2ccc(cc2Cl)[C@H]1O [vancomycin] as the molecule, how does the “decrease in vancomycin affinity” value [3] read?
The value was 1000 fold.

Which “highest dilution of antibiotic showing normal growth (sub-MIC used in experiments)” value [1] does the source give for Penicillin [PCN] here?
The value was 0.02 µg/mL.

And the “growth of staphylococci in the presence of sub-MIC of antibiotic” value [1]?
Its value is “grow similar to control bacteria without antibiotic”.

And the “Average OD” value ([2]; control of Ab 1:10)?
The value was 0.2446.

And the “Final OD Reading 1” value ([2]; control of Ab 1:10)?
Its value is 0.218.

What about the “Final OD Reading 2” value ([2]; control of Ab 1:10) of the same molecule?
Its value is 0.2712.

And the “Average OD” value ([2]; control of Ab 1:100)?
The value was 0.3534.

And the “Final OD Reading 1” value ([2]; control of Ab 1:100)?
Its value is 0.3508.

And the “Final OD Reading 2” value ([2]; control of Ab 1:100)?
Its value is 0.3561.

Which “HA-1A binding after exposure to the antibiotic” value [4] does the source give for gentamicin here?
The value was “not enhanced”.

With CC(C)(O/N=C(\C(=O)N[C@@H]1C(=O)N2C(C(=O)[O-])=C(C[n+]3ccccc3)CS[C@H]12)c1csc(N)n1)C(=O)O [caftazidime] as the molecule, how does the “HA-1A binding after exposure to the antibiotic” value [4] read?
The value was “dose-dependent enhancement of HA-1A binding”.

For CS(=O)(=O)SCCS(=O)(=O)O [(2-sulfonatoethyl)methane-thiosulfonate], which sortase inhibition [5] is on record?
Its sortase inhibition is “inhibit sortase in vitro and in vivo”.

With C[N+](C)(C)CCSS(C)(=O)=O [MTSET] as the molecule, how does the sortase inhibition [5] read?
Its sortase inhibition is “inhibit sortase in vitro and in vivo”.
